Here are results for 1 compound from patent publication US7211116B2, “Hair dye composition” (Kao Corporation, priority 2001, dated 2007).

The nature of the data set: Measurement of hydrogen peroxide remaining ratio in a virtual hair bleach composition (Cu, ammonia, H2O2; iodometric titration). To be noted: 20.0 mg compound, aqueous Cu solution, stirred 10 minutes at 30° C. How it is done: The first requirement is a remaining ratio of hydrogen peroxide. The remaining ratio of hydrogen peroxide is determined by measuring the remaining amount of hydrogen peroxide in a virtual hair bleach composition after a predetermined time. The remaining ratio exceeding a predetermined value allows existence of hydrogen peroxide which can be used for hair bleaching or dyeing and promotes the hair bleaching action. The remaining ratio below a predetermined value, on the other hand, prevents excessive stabilization of hydrogen peroxide, whereby the oxidizing agent acts to emit adequate —O2H (perhydroxy anion).
The hydrogen peroxide remaining ratio in the present invention is measured in the following manner. Measurement of hydrogen peroxide remaining ratio %: In a 50 mL screw tube are charged 20.0 mg of Compound (A) and 5.98 g of deionized water to dissolve the former in the latter. […] The point when a violet color (bluish violet to reddish violet) disappears completely is designated as a terminal point and hydrogen peroxide % is determined in accordance with the below-described equation. The amount of hydrogen peroxide in an aqueous solution obtained by diluting 10.00 of 2% aqueous hydrogen peroxide with 10.00 g of deionized water is also measured and the hydrogen peroxide amount at this time is taken as a hydrogen peroxide remaining ratio of 100%.

In the case of `NCCCN` [1,3-Propanediamine], the “Hydrogen peroxide remaining ratio” value was found to be 19.3%.
